What was measured:
L858R/T790M/C797S EGFR = molecular target: T1, L858R/T790M/C797S EGFR (Homo sapiens, UniProt P00533, C797S/L858R/T790M); experiment: EGFR degradation HTRF assay in H1975-clone #25 (LTC) cells; assay type: cell-based; details: 16h treatment; for DC50: H1975 # 25-LTC (L858R/T790M/C797S), HTRF; for Dmax: NCI-H1975, H1975 # 25-LTC (L858R/T790M/C797S), maximum percentage of degradation
T1 construct: expressed in transfected cells; host or cells: H1975 clone #25 (lentiviral over-expression, endogenous EGFR knocked out by sgRNA)
T1 sequence (P00533 25-1210 T790M/C797S/L858R): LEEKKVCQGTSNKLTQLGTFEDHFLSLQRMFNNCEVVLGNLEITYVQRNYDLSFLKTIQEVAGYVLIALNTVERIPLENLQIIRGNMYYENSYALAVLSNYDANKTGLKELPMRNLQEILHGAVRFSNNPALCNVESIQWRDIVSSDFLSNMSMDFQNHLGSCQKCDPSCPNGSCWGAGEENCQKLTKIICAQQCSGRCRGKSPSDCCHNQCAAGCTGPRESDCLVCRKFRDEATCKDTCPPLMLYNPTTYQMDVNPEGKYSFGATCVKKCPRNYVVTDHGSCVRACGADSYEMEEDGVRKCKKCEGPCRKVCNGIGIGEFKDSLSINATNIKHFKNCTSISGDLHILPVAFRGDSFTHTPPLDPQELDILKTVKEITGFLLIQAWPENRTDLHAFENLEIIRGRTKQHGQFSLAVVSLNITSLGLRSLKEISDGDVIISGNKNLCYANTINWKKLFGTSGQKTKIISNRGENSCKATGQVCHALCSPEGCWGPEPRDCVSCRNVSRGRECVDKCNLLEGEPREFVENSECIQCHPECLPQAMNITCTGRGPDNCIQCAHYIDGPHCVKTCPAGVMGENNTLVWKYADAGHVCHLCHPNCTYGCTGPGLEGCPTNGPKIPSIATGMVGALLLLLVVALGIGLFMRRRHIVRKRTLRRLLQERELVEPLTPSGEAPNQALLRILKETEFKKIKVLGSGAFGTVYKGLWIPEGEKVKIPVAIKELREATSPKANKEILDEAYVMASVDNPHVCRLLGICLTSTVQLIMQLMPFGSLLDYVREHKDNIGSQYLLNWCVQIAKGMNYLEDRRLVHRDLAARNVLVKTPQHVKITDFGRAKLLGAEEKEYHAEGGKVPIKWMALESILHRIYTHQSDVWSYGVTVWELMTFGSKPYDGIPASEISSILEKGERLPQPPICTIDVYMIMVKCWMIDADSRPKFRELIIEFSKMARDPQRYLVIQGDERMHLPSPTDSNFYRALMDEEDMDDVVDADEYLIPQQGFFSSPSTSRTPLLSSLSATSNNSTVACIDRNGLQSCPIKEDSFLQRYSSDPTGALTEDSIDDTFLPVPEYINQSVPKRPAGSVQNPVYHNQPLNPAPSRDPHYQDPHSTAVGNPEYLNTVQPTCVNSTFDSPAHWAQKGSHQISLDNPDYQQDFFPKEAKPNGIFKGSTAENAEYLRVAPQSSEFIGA
Summary of the method: (§1)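 Cells carrying only lentiviral mutant EGFR, since endogenous alleles were removed by CRISPR, received compounds on day 2 for 16 h. Final concentrations ran from 10 uM down in 5-fold steps over 8 doses. After lysis, EGFR levels were quantified by HTRF and DC50 derived by curve fitting.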

Del19/T790M/C797S EGFR = experiment: EGFR degradation HTRF assay in H1975-clone #28 (DTC) cells; assay type: cell-based; details: H1975 # 28 DTC (Del19/T790M/C797S), 16h treatment; for DC50: HTRF; for Dmax (%): maximum percentage of degradation
Summary of the method: as §1

Row | Structure (SMILES) | DC50 (L858R/T790M/C797S EGFR) [pM] | Dmax (L858R/T790M/C797S EGFR) [%] | DC50 (Del19/T790M/C797S EGFR) [pM] | Dmax (%) (Del19/T790M/C797S EGFR)
1 | Cc1cc2cc(n1)-c1cnn(C)c1OCCC[C@@H](C)CN1/C(=N/C2=O)Nc2ccc(N3CCC(C(=O)N4CC(Oc5cc(F)c([C@H]6CCC(=O)NC6=O)c(F)c5)C4)CC3)cc21 [Example 403, (R)-3-(2,6-difluoro-4-((1-(1-((R,E)-1^1,2^6,7-trimethyl-3-oxo-5^2,5^3-dihydro-1^1H,5^1H-11-oxa-4-aza-5(2,1)-benzo[d]imidazola-2(2,4)-pyridina-1(4,5)-pyrazolacycloundecaphane-5^6-yl)piperidine-4-carbonyl)azetidin-3-yl)oxy)phenyl)piperidine-2,6-dione] | 1070 | 87.5 | 857 | 82.98
2 | Cc1cc2cc(n1)-c1cnn(C)c1OCCC[C@@H](C)CN1/C(=N/C2=O)Nc2ccc(CN(C)[C@@H]3CCCN(C(=O)[C@@H]4CCN(c5cc(F)c([C@H]6CCC(=O)NC6=O)c(F)c5)C4)C3)cc21 [Example 318, (R)-3-(2,6-difluoro-4-((R)-3-((R)-3-(methyl(((R,E)-1^1,2^6,7-trimethyl-3-oxo-5^2,53-dihydro-1^1H,5^1H-11-oxa-4-aza-5(2,1)-benzo[d]imidazola-2(2,4)-pyridina-1(4,5)-pyrazolacycloundecaphane-5^6-yl)methyl)amino)piperidine-1-carbonyl)pyrrolidin-1-yl)phenyl)piperidine-2,6-dione] | 1330 | 76.4 | 995 | 67.67
3 | Cc1cc2cc(n1)-c1cnn(C)c1OCCC[C@@H](C)CN1/C(=N/C2=O)Nc2ccc(C(=O)N(C)[C@@H]3CCN(CCc4cc(F)c([C@H]5CCC(=O)NC5=O)c(F)c4)CC3(F)F)cc21 [Example 250, (R,E)-N—((R)-1-(4-((R)-2,6-dioxopiperidin-3-yl)-3,5-difluorophenethyl)-3,3-difluoropiperidin-4-yl)-N,1^1,2^6,7-tetramethyl-3-oxo-5^2,5^3-dihydro-1^1H,5^1H-11-oxa-4-aza-5(2,1)-benzo[d]imidazola-2(2,4)-pyridina-1(4,5)-pyrazolacycloundecaphane-5^6-carboxamide] | 1060 | 88.9 | 590 | 82.13
4 | Cc1cc2cc(n1)-c1cnn(C)c1OCCC[C@@H](C)CN1/C(=N/C2=O)Nc2ccc(C(=O)N3CC[C@H](N(C)CCc4cc(F)c([C@H]5CCC(=O)NC5=O)c(F)c4)C3)cc21 [Example 297, (R)-3-(2,6-difluoro-4-(2-(methyl((S)-1-((R,E)-1^1,2^6,7-trimethyl-3-oxo-5^2,5^3-dihydro-1^1H,5^1H-11-oxa-4-aza-5(2,1)-benzo[d]imidazola-2(2,4)-pyridina-1(4,5)-pyrazolacycloundecaphane-5^6-carbonyl)pyrrolidin-3-yl)amino)ethyl)phenyl)piperidine-2,6-dione] | 432 | 91.7 | 292 | 79.64
5 | Cc1cc2cc(n1)-c1cnn(C)c1OCCC[C@@H](C)CN1/C(=N/C2=O)Nc2ccc(C(=O)N(C)C[C@H]3CCN(CCc4cc(F)c([C@H]5CCC(=O)NC5=O)c(F)c4)CC3(F)F)cc21 [Example 274, (R,E)-N—(((R)-1-(4-((R)-2,6-dioxopiperidin-3-yl)-3,5-difluorophenethyl)-3,3-difluoropiperidin-4-yl)methyl)-N,1^1,2^6,7-tetramethyl-3-oxo-5^2,5^3-dihydro-1^1H,5^1H-11-oxa-4-aza-5(2,1)-benzo[d]imidazola-2(2,4)-pyridina-1(4,5)-pyrazolacycloundecaphane-5^6-carboxamide] | 1630 | 69.2 | 691 | 48.56
6 | CCN(C(=O)c1ccc2c(c1)N1C[C@H](C)CCCOc3c(cnn3C)-c3cc(cc(C)n3)C(=O)/N=C/1N2)C1CCN(C2CCN(c3cc(F)c([C@H]4CCC(=O)NC4=O)c(F)c3)CC2)CC1 [Example 288, (R,E)-N-(1′-(4-((R)-2,6-dioxopiperidin-3-yl)-3,5-difluorophenyl)-[1,4′-bipiperidin]-4-yl)-N-ethyl-1^1, 2^6,7-trimethyl-3-oxo-5^2,5^3-dihydro-1^1H,5^1H-11-oxa-4-aza-5(2,1)-benzo[d]imidazola-2(2,4)-pyridina-1(4,5)-pyrazolacycloundecaphane-5^6-carboxamide] | 662 | 92.8 | 488 | 79.62
7 | Cc1cc2cc(n1)-c1cnn(C)c1OCCC[C@@H](C)CN1/C(=N/C2=O)Nc2ccc(N3CCC(C(=O)N4CCC(Oc5cc(F)c([C@H]6CCC(=O)NC6=O)c(F)c5)CC4)CC3)cc21 [Example 364, (R)-3-(2,6-difluoro-4-((1-(1-((R,E)-1^1,2^6,7-trimethyl-3-oxo-5^2,53-dihydro-1^1H,5^1H-11-oxa-4-aza-5(2,1)-benzo[d]imidazola-2(2,4)-pyridina-1(4,5)-pyrazolacycloundecaphane-5^6-yl)piperidine-4-carbonyl)piperidin-4-yl)oxy)phenyl)piperidine-2,6-dione] | 1120 | 86.4 | 633 | 75.27
8 | Cc1cc2cc(n1)-c1cnn(C)c1OCCC[C@@H](C)CN1/C(=N/C2=O)Nc2ccc(C(=O)N[C@@H]3CCN(CCc4cc(F)c([C@H]5CCC(=O)NC5=O)c(F)c4)CC3(F)F)cc21 [Example 260, (R,E)-N—((R)-1-(4-((R)-2,6-dioxopiperidin-3-yl)-3,5-difluorophenethyl)-3,3-difluoropiperidin-4-yl)-1,2^6,7-trimethyl-3-oxo-5^2,5^3-dihydro-1^1H,5^1H-11-oxa-4-aza-5(2,1)-benzo[d]imidazola-2(2,4)-pyridina-1(4,5)-pyrazolacycloundecaphane-5^6-carboxamide] | 544 | 94 | 633 | 86.51
9 | Cc1cc2cc(n1)-c1cnn(C)c1OCCC[C@@H](C)CN1/C(=N/C2=O)Nc2ccc(N3CCN(CC4CN(c5cc(F)c([C@H]6CCC(=O)NC6=O)c(F)c5)C4)[C@H](CO)C3)cc21 [Example 451, (R)-3-(2,6-difluoro-4-(3-(((S)-2-(hydroxymethyl)-4-((R,E)-1^1,2^6,7-trimethyl-3-oxo-5^2,5^3-dihydro-1^1H,5^1H-11-oxa-4-aza-5(2,1)-benzo[d]imidazola-2(2,4)-pyridina-1(4,5)-pyrazolacycloundecaphane-5^6-yl)piperazin-1-yl)methyl)azetidin-1-yl)phenyl)piperidine-2,6-dione] | 881 | 90.9 | 606 | 81.53
10 | Cc1cc2cc(n1)-c1cnn(C)c1OCCC[C@@H](C)CN1/C(=N/C2=O)Nc2ccc(N3CCN(C4CCN(c5cc(F)c([C@H]6CCC(=O)NC6=O)c(F)c5)CC4)C[C@@H]3C)cc21 [Example 383, (R)-3-(2,6-difluoro-4-(4-((S)-3-methyl-4-((R,E)-1^1,2^6,7-trimethyl-3-oxo-5^2,5^3-dihydro-1^1H,5^1H-11-oxa-4-aza-5(2,1)-benzo[d]imidazola-2(2,4)-pyridina-1(4,5)-pyrazolacycloundecaphane-5-yl)piperazin-1-yl)piperidin-1-yl)phenyl)piperidine-2,6-dione] | 1340 | 88.8 | 2190 | 73.18
11 | Cc1cc2cc(n1)-c1cnn(C)c1OCCC[C@@H](C)CN1/C(=N/C2=O)Nc2ccc(CN3CC4(CCN(C(=O)[C@@H]5CCN(c6cc(F)c([C@H]7CCC(=O)NC7=O)c(F)c6)C5)CC4)C3)cc21 [Example 84, (R)-3-(2,6-difluoro-4-((R)-3-(2-(((R,E)-1^1,2^6,7-trimethyl-3-oxo-5^2,5^3-dihydro-1^1H,5^1H-11-oxa-4-aza-5(2,1)-benzo[d]imidazola-2(2,4)-pyridina-1(4,5)-pyrazolacycloundecaphane-5^6-yl)methyl)-2,7-diazaspiro[3.5]nonane-7-carbonyl)pyrrolidin-1-yl)phenyl)piperidine-2,6-dione] | 2900 | 92.7 | 800 | 86.1
12 | Cc1cc2cc(n1)-c1cnn(C)c1OCCC[C@@H](C)CN1/C(=N/C2=O)Nc2ccc(C(=O)N(C)C[C@H]3CCCN(CCc4cc(F)c([C@H]5CCC(=O)NC5=O)c(F)c4)C3)cc21 [Example 276, (R,E)-N—(((S)-1-(4-((R)-2,6-dioxopiperidin-3-yl)-3,5-difluorophenethyl)piperidin-3-yl)methyl)-N,1^1, 2^6,7-tetramethyl-3-oxo-5^2,5^3-dihydro-1^1H,5^1H-11-oxa-4-aza-5(2,1)-benzo[d]imidazola-2(2,4)-pyridina-1(4,5)-pyrazolacycloundecaphane-5^6-carboxamide] | 592 | 88 | 1740 | 71.19
13 | Cc1cc2cc(n1)-c1cnn(C)c1OCCC[C@@H](C)CN1/C(=N/C2=O)Nc2ccc(C(=O)N(C)[C@@H]3CCN(CCc4cc(F)c([C@H]5CCC(=O)NC5=O)c(F)c4)C3)cc21 [Example 291, (R,E)-N—((R)-1-(4-((R)-2,6-dioxopiperidin-3-yl)-3,5-difluorophenethyl)pyrrolidin-3-yl)-N,1^1,2^6,7-tetramethyl-3-oxo-5^2,5^3-dihydro-1^1H,5^1H-11-oxa-4-aza-5(2,1)-benzo[d]imidazola-2(2,4)-pyridina-1(4,5)-pyrazolacycloundecaphane-5^6-carboxamide] | 630 | 79 | 513 | 72.04

— US20240342292A1, “Compounds for the Degradation of EGFR Kinase” (BeiGene Switzerland GmbH, priority 2021, published 2024)
